Measured values taken from ChEMBL document CHEMBL2331174, “Inhibition of notch pathway signaling: a one compound mission to treat cancer” (ACS Med Chem Lett, 2013).

How the values were obtained:
[1] = Inhibition of gamma-secretase mediated cleavage of Notch 1 in human MOLT-3 cells assessed as nuclear accumulation of Notch 1 intracellular domain (N1ICD) after 24 hrs by ELISA; format: cell-based; details: MOLT-3, 24 h
[2] = Inhibition of gamma-secretase mediated cleavage of Notch 1 in human U-87-MG cells assessed as nuclear accumulation of Notch 1 intracellular domain (N1ICD) after 24 hrs by ELISA; format: cell-based, U-87MG ATCC
[3] = Inhibition of gamma-secretase mediated cleavage of Notch 1 in human MDA-MB-231 cells assessed as nuclear accumulation of Notch 1 intracellular domain (N1ICD) after 24 hrs by ELISA; format: cell-based; details: MDA-MB-231, 24 h
[4] = Inhibition of gamma-secretase mediated cleavage of Notch 1 in human Jurkat cells assessed as nuclear accumulation of Notch 1 intracellular domain (N1ICD) after 24 hrs by ELISA; format: cell-based
[5] = Inhibition of gamma-secretase mediated cleavage of transfected mouse Notch 1 (1703-2183) harboring N-terminal 23 aminoacid signal peptide sequence in human HEK293deltaE12 cells assessed as nuclear accumulation of Notch 1 intracellular domain (N1ICD) after 24 hrs by fluorescence cellular imaging analysis; format: cell-based
[6] = Inhibition of gamma-secretase mediated cleavage of Notch 1 in human HCT 116 cells assessed as nuclear accumulation of Notch 1 intracellular domain (N1ICD) after 24 hrs by ELISA; format: cell-based; details: HCT-116, 24 h
[7] = Inhibition of gamma-secretase mediated cleavage of Notch 1 in human A375 cells assessed as nuclear accumulation of Notch 1 intracellular domain (N1ICD) after 24 hrs by ELISA; format: cell-based; details: A-375, 24 h
[8] = Inhibition of gamma-secretase mediated cleavage of Notch 1 in human K562 cells assessed as nuclear accumulation of Notch 1 intracellular domain (N1ICD) after 24 hrs by ELISA; format: cell-based; details: K562, 24 h
[9] = Inhibition of gamma-secretase mediated cleavage of Notch 1 in human DLD1 cells assessed as nuclear accumulation of Notch 1 intracellular domain (N1ICD) after 24 hrs by ELISA; format: cell-based; details: DLD-1, 24 h
[10] = Inhibition of gamma-secretase mediated cleavage of Notch 1 in human HEL 92.1.7 cells assessed as nuclear accumulation of Notch 1 intracellular domain (N1ICD) after 24 hrs by ELISA; format: cell-based; details: HEL 92.1.7, 24 h
[11] = Inhibition of gamma-secretase mediated cleavage of Notch 1 in human A2780 cells assessed as nuclear accumulation of Notch 1 intracellular domain (N1ICD) after 24 hrs by ELISA; format: cell-based; details: A2780, 24 h
[12] = Inhibition of gamma-secretase mediated cleavage of Notch 1 in human CCRF-CEM cells assessed as nuclear accumulation of Notch 1 intracellular domain (N1ICD) after 24 hrs by ELISA; format: cell-based
[13] = Inhibition of gamma-secretase mediated cleavage of Notch 1 in human BxPC3 cells assessed as nuclear accumulation of Notch 1 intracellular domain (N1ICD) after 24 hrs by ELISA; format: cell-based; details: BXPC-3, 24 h
[14] = Inhibition of gamma-secretase mediated cleavage of Notch 1 in human SW480 cells assessed as nuclear accumulation of Notch 1 intracellular domain (N1ICD) after 24 hrs by ELISA; format: cell-based; details: SW480, 24 h
[15] = Inhibition of gamma-secretase mediated cleavage of Notch 1 in human MOLT-4 cells assessed as nuclear accumulation of Notch 1 intracellular domain (N1ICD) after 24 hrs by ELISA; format: cell-based; details: MOLT-4, 24 h
[16] = Inhibition of gamma-secretase mediated cleavage of Notch 1 in human MIAPaCa2 cells assessed as nuclear accumulation of Notch 1 intracellular domain (N1ICD) after 24 hrs by ELISA; format: cell-based; details: MIA PaCa-2, 24 h
[17] = Inhibition of gamma-secretase mediated cleavage of Notch 1 in human SUP-T1 cells assessed as nuclear accumulation of Notch 1 intracellular domain (N1ICD) after 24 hrs by ELISA; format: cell-based; details: SUP-T1, 24 h

IC50 [1]: 610 pM | IC50 [2]: 280 pM | IC50 [3]: 500 pM | IC50 [4]: 5950 pM | IC50 [5]: 410 pM | IC50 [6]: 720 pM | IC50 [7]: 480 pM | IC50 [8]: 740 pM | IC50 [9]: 980 pM | IC50 [10]: 230 pM | IC50 [11]: 1030 pM | IC50 [12]: 760 pM | IC50 [13]: 390 pM | IC50 [14]: 100 pM | IC50 [15]: 740 pM | IC50 [16]: 710 pM | IC50 [17]: 1240 pM
Compound: C[C@H](NC(=O)CCC(F)(F)F)C(=O)N[C@@H]1C(=O)N(CCO)c2ncccc2-c2ccccc21 [CRENIGACESTAT]
